Laboratory results published in US8350033B2, “4-((3, 5, 6-trimethylpyrazine-2-yl) methoxyl) benzoic acid and its derivatives” (priority 2007, dated 2013).

Columns and labels:
aggregation of platelet = test: Experiment of resisting platelet aggregation (ADP-induced, platelet-rich plasma, absorbance at 600 nm); assay type: cell-based, rabbit; settings: for IC50: Oryctolagus cuniculus, rabbit platelet-rich plasma, ADP final concentration of 4 μmol/L, read-out: IC50 (50% inhibitory concentration) on aggregation of platelet
Description: Experiment of resisting platelet aggregation with the ligustrazine aromatic acid ether derivatives: Anaesthetizing intravenously a rabbit with 3% pentobarbital sodium, separating arteria carotis communis and taking blood by inserting a pipe, using 3.8% sodium citrate solution (dissolving 3.8 g sodium citrate with distilled water, up to 100 mL, filtering, bottling, sterilizing under 121° C. and high pressure for 15 min) as an anticoagulant (1:9), 1000 r/min, centrifuging for 5 min to prepare platelet-rich plasma (PRP), 3000 r/min, centrifuging for 15 min to prepare platelet-poor plasma (PPP). Cultivating the PRP under 37° C. in a silicified cuvette for 5 min, measuring absorbance (A) at 600 nm, adjusting the absorbance of the PRP to 0.6-0.7 with the PPP, adding 1.7 mL adjusted PRP into another silicified cuvette, adding 200 μL of the test drug, measuring the absorbance at 600 nm before adding […], then adding 100 μL of ADP (final concentration of 4 μmol/L), respectively measuring the absorbance when 2 and 5 min after adding the ADP, calculating aggregation rate (AR) by the following formula: AR=(A before adding the ADP−A after adding the ADP)/A before adding the ADP (100%.). At the same time, calculating aggregation inhibition rate (AIR) of the tested drug to platelet: AIR=[1−(aggregation percentage in administrated tube/aggregation percentage in contrast tube)]×100. Calculating 50% inhibitory concentration (IC50) of the tested drug, referring to table 2.

IC50 (aggregation of platelet) [µM] | melting point | SMILES | antiplatelet aggregative activity compared with Ozagrel positive drug (in words) (aggregation of platelet; rabbit PRP, ADP) | antiplatelet aggregative activity relative to Ozagrel (aggregation of platelet; ratio to Ozagrel positive drug, rabbit PRP, ADP) [times]
1360 | 179 to 181 °C | Cc1nc(C)c(COc2ccc(C(=O)O)cc2)nc1C [MC1, 4-((3,5,6-trimethylpyrazine-2-yl)methoxyl)benzoic acid] | stronger than Ozagrel | –
– | 183 to 185 °C | COc1cc(C(=O)O)ccc1OCc1nc(C)c(C)nc1C [Example 5, 4-((3,5,6-trimethylpyrazine-2-yl)methoxyl)-3-methoxybenzoic acid] | – | –
280 | 156 to 158 °C | COc1cc(/C=C/C(=O)O)ccc1OCc1nc(C)c(C)nc1C [MC2, (E)-3-(4-((3,5,6-Trimethylpyrazin-2-yl)methoxy)-3-methoxyphenyl)acrylic acid] | stronger than Ozagrel | 5.7
– | > 218 °C (dec.) | COc1cc(C(=O)O)cc(OC)c1OCc1nc(C)c(C)nc1C [Example 2, 4-((3,5,6-trimethylpyrazine-2-yl)methoxyl)-3,5-dimethoxybenzoic acid] | – | –
1000 | 190 to 192 °C | COc1ccc(C(=O)O)cc1OCc1nc(C)c(C)nc1C [MC5, 3-((3,5,6-trimethylpyrazine-2-yl)methoxyl)-4-methoxybenzoic acid] | stronger than Ozagrel | –
1600 | – | O=C(O)/C=C/c1ccc(Cn2ccnc2)cc1 [Ozagrel, reference compound] | – | –
